Data published in patent US20040204383A1, “Lysophosphatidic acid analogs and inhibition of neointima formation” (priority 2003, published 2004).

Legend:
rat carotid arteries = assay: Induction of neointima formation in rat carotid artery by topical application; assay type: in vivo; details: for neointimal growth: 2.5 μM, 1 h exposure, monitored up to 8 wk (FIG. 4A)
From the text: Briefly, the right carotid artery of anesthetized adult male Sprague-Dawley rats (250-300 g) was surgically exposed. The caudal origin of the common carotid artery was ligated using a vessel clip, followed by exposure and ligation of the internal carotid artery above the bifurcation. The external carotid artery was exposed, and a polyethylene catheter was inserted such that it never reached the common carotid artery, thereby avoiding mechanical injury to the vessel. The clip occluding the common carotid artery was temporarily released, and the vessel was rinsed with a retrograde injection of 500 μl physiological saline to remove residual blood. The vessel was again clipped, and 100 μl of treatment solution was injected. After 60 min of incubation, the cannula was withdrawn, the external carotid artery was ligated, and blood flow was restored. Animals were allowed to recover and were killed 7-56 d later by intracardiac perfusion of 10% buffered formaldehyde (pH 7.4). The common carotid artery from the […] to the bifurcation was dissected, embedded in paraffin, and processed for histological analysis. Five μm-thick sections were cut and stained with hematoxylin and eosin or Masson's trichrome stain. Intima to media ratios were quantified using an image analysis system (Scion Image CMS-800).

[1] = test system: CD36(−273)-Rluc reporter gene; assay: CD36(−273)-Rluc reporter gene (with PPRE) in CV-1 cells; assay type: cell-based; details: 10 μM, CV-1 cells (FIG. 7E)
Experimental: (§1) Therefore, the investigators compared the unique in vivo neointima-eliciting lysophosphatidic acid structure-activity relationship with that of PPARγ using an in vitro assay that utilizes an acyl-coenzyme A oxidase-luciferase (PPRE-Acox-Rluc) reporter gene construct containing a peroxisome proliferator-activated receptor response element. CV-1 cells were plated in 96-well plates (5×10^3 cells per well) in DME supplemented with 10% FBS. The next day, the cells were transiently transfected with 125 ng of pGL3-PPRE-acyl-CoA oxidase (Acox)-renilla luciferase), or 125 ng pGL3-CD36(−273), or pGL3-CD36(−261), 62.5 ng of pcDNAI-PPARγ, and 12.5 ng of pSV-β-galactosidase (Promega) using LipofectAMINE™ 2000 (Invitrogen). Twenty four hours after transfection, cells were treated with 1% FBS-supplemented OptiMEMI™ (Invitrogen) containing DMSO or test compound (10 μM) in DMSO for 20 h. Luciferase and β-galactosidase activities were measured with the Steady-Glo® Luciferase Assay System (Promega) and the Galacto-Light Plus™ System (Applied Biosystems), respectively. Samples were run in quadruplicate, and the mean±SE were calculated. Data are representative of at least three independent transfections. Student's t test was used for null hypothesis testing, and P<0.05 was considered significant.

[2] = test system: CD36(−261)-Rluc reporter gene; assay: CD36(−261)-Rluc reporter gene (deleted PPRE) in CV-1 cells; assay type: cell-based; details: 10 μM, CV-1 cells (FIG. 7E)
Experimental: as §1

[3] = test system: vascular smooth muscle cells; assay: Phenotypic modulation and dedifferentiation of cultured VSMCs (morphology, hCAD mRNA); assay type: cell-based, rat; details: for morphology of VSMCs: 1 μM for 3 days, cultures established in 2 ng/ml IGF-1
Experimental: Expression of lysophosphatidic acid-specific G protein-coupled plasma membrane receptors in rat carotid arteries was examined by RT-PCR as described earlier by Wang et al. (2002). To quantify heavy caldesmon mRNA, quantitative PCR was performed applying the real-time SYBR Green PCR method using a Sequence Detection System Model 7700 (Applied Biosystems) instrument. Rat heavy caldesmon and GAPDH (reference control mRNA)-specific primers were designed with Primer Express Software (Applied Biosystems), and forward and reverse primers were as follows: 5′-[…]-3′ (SEQ ID NO:1) and 5′-[…]-3′ (SEQ ID NO:2) for heavy caldesmon; 5′-[…]-3′ (SEQ ID NO:3) and 5′-[…]-3′ (SEQ ID NO:4) for GAPDH. Amplification reaction was performed with SYBR Green PCR Master Mix (Applied Biosystems) following the manufacturer's protocol. mRNA abundance calculation was based on Ct values as described previously (Wang et al., 2002). The expression level of heavy caldesmon mRNA was normalized to GAPDH mRNA. Each PCR reaction was performed at least three times, and the result was expressed as mean±SEM. Statistical comparison of mRNA expression was evaluated by ANOVA, and P<0.05 was considered statistically significant.
It has been reported that unsaturated lysophosphatidic acid species induced phenotypic modulation of cultured vascular smooth muscle cells (VSMCs). Because the neointimal response and PPARγ display a similar selectivity for unsaturated lysophosphatidic acid, that activation of PPARγ plays a role in the phenotypic dedifferentiation is hypothesized herein. This hypothesis was tested in a culture system in which IGF-1 maintains the differentiated spindle shape of vascular smooth muscle cells as indicated by high levels of heavy caldesmon (hCAD) mRNA expression.

PPARγ = assay: Immunohistological staining for PPARγ in treated rat carotid arteries; assay type: in vivo; details: LPA 2.5 μM, 4 wk after treatment; LDL data not shown
Experimental: (§2) FIGS. 7A-D show immunohistological staining for PPARγ in rat carotid arteries. Only a few nuclei show PPARγ immunoreactivity in a carotid artery 4 wk after treatment with 2.5 μM LPA 20:0 (FIG. 7A). In contrast, the multilayered neointima elicited by LPA 20:4 expresses high levels of PPARγ immunoreactivity (FIG. 7B). Activation of PPARγ within neointima in LPA 20:4-treated carotid arteries is indicated by the strong expression of CD36 in a distribution that overlaps that of PPARγ (FIG. 7D). […] Anti-PPARγ and anti-CD36 were from Santa Cruz Biotechnology, Inc. Bars, 250 μm.
Expression of PPARγ protein was examined in rat carotid arteries exposed to lysophosphatidic acid or minimally oxidized LDL.

CD36 = assay: Immunostaining for CD36 in treated rat carotid arteries; assay type: in vivo; details: LPA 2.5 μM, 4 wk after treatment; LDL data not shown
Experimental: as §2
The scavenger receptor CD36, a PPARγ-regulated gene, contains a PPAR response element within its promoter between base pairs −273 and −261. CD36 plays a critical role in lipid uptake by binding and transporting oxidized lipids, including minimally oxidized LDL. Thus, this pathway could provide a source of ligands, such as lysophosphatidic acid, alkyl-GP, and AZ-PC, to sustain PPARγ activation. Acyl and alkyl forms of lysophosphatidic acid both accumulate in human atherosclerotic plaques. Lysophosphatidic acid activates CD36-mediated lipid uptake into macrophages through a PPARγ-PPRE-dependent mechanism.

LPA3 = target: T1, LPA3 (Homo sapiens, UniProt Q9UBY5); details: cited from earlier work
T1 sequence (Q9UBY5 1-353): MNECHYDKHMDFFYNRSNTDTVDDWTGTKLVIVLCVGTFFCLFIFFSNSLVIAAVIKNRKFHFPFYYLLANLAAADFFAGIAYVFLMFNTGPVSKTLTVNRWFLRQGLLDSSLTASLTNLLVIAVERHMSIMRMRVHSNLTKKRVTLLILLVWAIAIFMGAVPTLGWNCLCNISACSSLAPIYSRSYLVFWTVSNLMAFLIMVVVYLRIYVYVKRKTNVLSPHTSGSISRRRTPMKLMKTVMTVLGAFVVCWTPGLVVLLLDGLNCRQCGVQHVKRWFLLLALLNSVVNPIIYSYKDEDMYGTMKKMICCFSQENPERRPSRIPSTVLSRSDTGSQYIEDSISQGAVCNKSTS

LPA2 = LPA2 (Homo sapiens, UniProt Q9HBW0); details: cited from earlier work
LPA1 = LPA1 (Homo sapiens, UniProt Q92633); details: cited from earlier work
LPA1, sequence (Q92633 whole entry, species assumed): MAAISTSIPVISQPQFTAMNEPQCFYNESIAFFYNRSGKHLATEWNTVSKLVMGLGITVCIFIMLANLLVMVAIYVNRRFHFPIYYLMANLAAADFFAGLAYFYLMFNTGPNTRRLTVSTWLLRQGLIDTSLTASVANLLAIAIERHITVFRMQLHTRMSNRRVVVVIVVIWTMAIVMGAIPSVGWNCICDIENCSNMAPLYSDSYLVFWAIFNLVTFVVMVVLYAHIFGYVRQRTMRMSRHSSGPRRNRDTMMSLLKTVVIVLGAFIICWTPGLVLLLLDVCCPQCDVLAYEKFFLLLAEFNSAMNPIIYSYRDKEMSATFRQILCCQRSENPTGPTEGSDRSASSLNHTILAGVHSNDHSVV

LPA2, sequence (Q9HBW0 whole entry, species assumed): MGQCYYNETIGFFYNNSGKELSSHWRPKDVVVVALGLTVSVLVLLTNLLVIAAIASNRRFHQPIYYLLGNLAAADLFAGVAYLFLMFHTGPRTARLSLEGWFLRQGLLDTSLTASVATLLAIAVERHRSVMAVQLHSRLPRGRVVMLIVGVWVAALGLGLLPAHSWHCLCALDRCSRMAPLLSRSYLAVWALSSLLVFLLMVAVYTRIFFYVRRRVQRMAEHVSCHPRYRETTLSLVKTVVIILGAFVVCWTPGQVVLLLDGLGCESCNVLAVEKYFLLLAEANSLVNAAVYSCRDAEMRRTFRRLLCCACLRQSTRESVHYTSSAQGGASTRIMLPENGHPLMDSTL

SMILES | neointimal growth (rat carotid arteries) | neointima formation when delivered as BSA complexes (rat carotid arteries; Rosi 10 μM, LPA 20:4 2.5 μM, 10 μM albumin, 2 wk after treatment (FIG. 7F)) | neointima formation when delivered in rat plasma or serum (rat carotid arteries; Rosi 10 μM, LPA 20:4 2.5 μM, 2 wk after treatment (FIG. 7F)) | stimulation of CD36(−273)-Rluc reporter gene [1] | stimulation of CD36(−261)-Rluc reporter gene (deleted PPRE) [2] | morphology of VSMCs [3] | decrease of hCAD mRNA expression ([3]; quantitative RT-PCR, day 5 (FIG. 8I)) | PPARγ immunoreactivity in carotid artery (PPARγ) | CD36 immunoreactivity in carotid artery (CD36) | activity at LPA3 (LPA3) | activity at LPA2 (LPA2) | activity at LPA1 (LPA1)
CCCCC/C=C\C/C=C\C/C=C\C/C=C\CCCC(=O)OC[C@@H](O)COP(=O)(O)O [LPA 20:4] | elicited progressive neointimal growth | elicited neointima formation | no neointima formation was detected | elicited significant stimulation | neither Rosi nor lysophosphatidic acid 20:4 activated the reporter gene | developed a fibroblast-like flattened morphology | most pronounced | intense PPARγ immunoreactivity | intense CD36 immunoreactivity |  |  | 
CCCCCCCCCCCCCCCCCCCC(=O)OC[C@@H](O)COP(=O)(O)O [LPA 20:0] | completely inactive |  |  |  |  | maintained the spindle-like differentiated morphology |  | only a few stained nuclei | no increase in immunoreactivity |  |  | 
CCCCCCCCCCCCOP(=O)(O)O [fatty alcohol phosphate 12:0] |  |  |  |  |  |  |  |  |  | antagonist | specific agonist | without any effect
